Patent US11084800B2 (Achillion Pharmaceuticals, Inc., priority 2017, dated 2021)

These compounds were tested against Human Factor D (Homo sapiens (Human), UniProt P00746) (assay: Human Factor D Assay). Conditions: Table 6; Factor D 80 nM, substrate Z-L-Lys-SBz; read-out: IC50.
Format: biochemical
In short: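 Thioester substrate Z-L-Lys-SBz (100 μM) with Ellman's reagent DTNB (100 μM) reports activity of 80 nM human serum-derived enzyme, kinetically at 405 nm over 30 min. Compound preincubated 5 min, room temperature, pH 7.5 Tris/1 M NaCl; IC50 by nonlinear fit of rates.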

Chain of Human Factor D (P00746 26-253): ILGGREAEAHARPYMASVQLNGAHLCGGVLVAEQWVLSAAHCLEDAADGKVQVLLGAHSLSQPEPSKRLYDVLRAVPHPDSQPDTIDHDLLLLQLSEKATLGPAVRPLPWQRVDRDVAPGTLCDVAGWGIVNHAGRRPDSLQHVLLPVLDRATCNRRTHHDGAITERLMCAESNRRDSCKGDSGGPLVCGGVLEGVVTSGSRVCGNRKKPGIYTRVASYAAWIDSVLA

Question: Which IC50 does the source give for `Cc1ncc(-c2ccc3c(c2)c(C(C)O)nn3CC(=O)N2[C@H](C(=O)Nc3nc(Br)ccc3C)C[C@@]3(C)C[C@@H]23)cn1` (stereo partly drawn) [Compound 72, (1R,3S,5R)-N-(6-bromo-3-methylpyridin-2-yl)-2-(2-(3-(1-hydroxyethyl)-5-(2-methylpyrimidin-5-yl)-1H-indazol-1-yl)acetyl)-5-methyl-2-azabicyclo[3.1.0]hexane-3-carboxamide] here?
Answer: 1000 to 10000 nM

Question: Which IC50 does the source give for `CC(=O)c1nn(CC(=O)N2[C@H](C(=O)Nc3nc(Br)cc4ccccc34)C[C@@]3(C)C[C@@H]23)c2ccc(-c3cnc(C)nc3)cc12` [Compound 73, (1R,3S,5R)-2-(2-(3-Acetyl-5-(2-methylpyrimidin-5-yl)-1H-indazol-1-yl)acetyl)-N-(3-bromoisoquinolin-1-yl)-5-methyl-2-azabicyclo[3.1.0]hexane-3-carboxamide] here?
Answer: < 1000 nM

Question: How did the IC50 turn out when `CC(=O)c1nn(CC(=O)N2[C@H](C(=O)Nc3nc(Br)ccc3C)C[C@@]3(CN(C)C)C[C@@H]23)c2c(CF)cc(-c3cnc(C)nc3)cc12` [Compound 74, (1R,3S,5R)-2-(2-(3-Acetyl-7-(fluoromethyl)-5-(2-methylpyrimidin-5-yl)-1H-indazol-1-yl)acetyl)-N-(6-bromo-3-methylpyridin-2-yl)-5-((dimethylamino)methyl)-2-azabicyclo[3.1.0]hexane-3-carboxamide] was run?
Answer: < 1000 nM

Question: For `CC(=O)c1nn(CC(=O)N2[C@H]3C[C@@]3(CN(C)C)C[C@H]2C(=O)Nc2nc(Br)ccc2C)c2c(CF)cc(-c3cnc(C)nc3)cc12` [Compound 75, (1S,3S,5S)-2-(2-(3-Acetyl-7-(fluoromethyl)-5-(2-methylpyrimidin-5-yl)-1H-indazol-1-yl)acetyl)-N-(6-bromo-3-methylpyridin-2-yl)-5-((dimethylamino)methyl)-2-azabicyclo[3.1.0]hexane-3-carboxamide], which IC50 is on record?
Answer: < 1000 nM

Question: `CC(=O)c1nn(CC(=O)N2C[C@@](F)(CF)C[C@H]2C(=O)Nc2nc(Br)ccc2C)c2c(CF)cc(-c3cnc(C)nc3)cc12` [Compound 76, (2S,4R)-1-(2-(3-acetyl-7-(fluoromethyl)-5-(2-methylpyrimidin-5-yl)-1H-indazol-1-yl)acetyl)-N-(6-bromo-3-methylpyridin-2-yl)-4-fluoro-4-(fluoromethyl)pyrrolidine-2-carboxamide] was tested. Which IC50 did it give?
Answer: < 1000 nM

Question: `CC(=O)c1nn(CC(=O)N2[C@H]3C[C@@]3(C)C[C@H]2C(=O)Nc2nc(Br)ccc2C)c2c(C(F)(F)F)cc(-c3cnc(C)nc3)cc12` [Compound 77, (1S,3S,5S)-2-(2-(3-acetyl-5-(2-methylpyrimidin-5-yl)-7-(trifluoromethyl)-1H-indazol-1-yl)acetyl)-N-(6-bromo-3-methylpyridin-2-yl)-5-methyl-2-azabicyclo[3.1.0]hexane-3-carboxamide] was tested. Which IC50 did it give?
Answer: > 10000 nM

Question: Which IC50 does the source give for `CC(=O)c1nn(CC(=O)N2[C@H](C(=O)Nc3nc(Br)ccc3C)C[C@@]3(CN4CCN(C(C)=O)CC4)C[C@@H]23)c2ccc(-c3cnc(C)nc3)cc12` [Compound 78, (1R,3S,5R)-2-(2-(3-acetyl-5-(2-methylpyrimidin-5-yl)-1H-indazol-1-yl)acetyl)-5-((4-acetylpiperazin-1-yl)methyl)-N-(6-bromo-3-methylpyridin-2-yl)-2-azabicyclo[3.1.0]hexane-3-carboxamide] here?
Answer: < 1000 nM

Question: `CC(=O)c1nn(CC(=O)N2[C@H]3C[C@@]3(CN3CCN(C(C)=O)CC3)C[C@H]2C(=O)Nc2nc(Br)ccc2C)c2ccc(-c3cnc(C)nc3)cc12` [Compound 79, (1S,3S,5S)-2-(2-(3-acetyl-5-(2-methylpyrimidin-5-yl)-1H-indazol-1-yl)acetyl)-5-((4-acetylpiperazin-1-yl)methyl)-N-(6-bromo-3-methylpyridin-2-yl)-2-azabicyclo[3.1.0]hexane-3-carboxamide] was tested. Which IC50 did it give?
Answer: 1000 to 10000 nM

Question: How did the IC50 turn out when `CC(=O)c1nn(CC(=O)N2[C@H](C(=O)NCCC(C)(C)C)C[C@@]3(C)C[C@@H]23)c2c(C)cc(-c3cnc(C)nc3)cc12` [Compound 80, (1R,3S,5R)-2-(2-(3-Acetyl-7-methyl-5-(2-methylpyrimidin-5-yl)-1H-indazol-1-yl)acetyl)-N-(3,3-dimethylbutyl)-5-methyl-2-azabicyclo[3.1.0]hexane-3-carboxamide] was run?
Answer: < 1000 nM
